Reference: ChEMBL document CHEMBL5726785, “TrkA kinase inhibitors, compositions and methods thereof” (2018)

Biological target: High affinity nerve growth factor receptor (Homo sapiens, UniProt P04629)
Assay: TrkA Receptor : TrkA functional activity was measured using a DiscoverX PathHunter assay. In this assay, U2OS cells are express TrkA receptor as a fusion with the weakly complementing fragment of B-galactosidase, which DiscoverX calls “Prolink (PK)”; additionally, Shc1 is fused with a larger fragment, which is called “Enzyme Acceptor (EA)”. Activation of the TrkA receptor, upon NGF addition, results in the kinase domain being phosphorylated, resulting in subsequent recruitment of Shc1-EA protein. That recruitment results in an active B-galactosidase enzyme that is detected by addition of a chemiluminescent substrate.All reagents were purchased from DiscoverX, except for the receptor agonists (NGF, BDNF, NT3) which were purchased from Peprotech. Cells were expanded and frozen into cryovials (TrkA p75 @ passage 13, 1.5×10^7 cells/vial; TrkC p75 @ passage 11, 1.5×10^7 cells/vial in InVitrogen Recovery Cell Freezing media), and stored in the vapor phase of liquid nitrogen, and thawed immediately before use. Thawed cells were added to a 384-well plate (BD Falcon 384-well white/clear, TC surface 120 uL assay plates (353963), 20 uL of 0.375e6 cells/mL=>7500 cells/well), and allowed to incubate overnight. […]

Sequence of High affinity nerve growth factor receptor (P04629 whole entry, the tested form may be a part): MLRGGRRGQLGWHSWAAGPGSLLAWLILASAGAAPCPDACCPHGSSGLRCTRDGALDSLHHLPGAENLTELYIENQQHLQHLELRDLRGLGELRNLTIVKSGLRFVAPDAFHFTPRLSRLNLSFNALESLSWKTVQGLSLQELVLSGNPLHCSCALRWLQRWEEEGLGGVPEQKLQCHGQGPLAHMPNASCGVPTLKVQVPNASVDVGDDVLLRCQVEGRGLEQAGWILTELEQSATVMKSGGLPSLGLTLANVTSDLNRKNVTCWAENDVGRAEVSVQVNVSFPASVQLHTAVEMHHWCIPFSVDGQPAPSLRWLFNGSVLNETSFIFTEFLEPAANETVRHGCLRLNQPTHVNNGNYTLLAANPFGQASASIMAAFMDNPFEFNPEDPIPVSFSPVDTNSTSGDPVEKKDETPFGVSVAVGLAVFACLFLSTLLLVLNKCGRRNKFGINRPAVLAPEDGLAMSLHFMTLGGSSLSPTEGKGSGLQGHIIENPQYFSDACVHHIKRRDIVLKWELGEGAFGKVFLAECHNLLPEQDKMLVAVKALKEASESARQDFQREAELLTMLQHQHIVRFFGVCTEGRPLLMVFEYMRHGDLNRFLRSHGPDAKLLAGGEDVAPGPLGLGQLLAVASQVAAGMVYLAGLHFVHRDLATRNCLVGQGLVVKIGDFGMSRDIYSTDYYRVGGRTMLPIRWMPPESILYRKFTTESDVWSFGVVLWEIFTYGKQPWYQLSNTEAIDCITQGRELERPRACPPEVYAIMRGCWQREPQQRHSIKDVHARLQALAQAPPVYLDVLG

IC50: 570 nM
Structure (SMILES): Cc1ncc(NC(=O)Nc2c(-c3ccccc3)[nH]c3ccccc23)c(-c2ccccc2)n1
